This note sets out measurements from ChEMBL document CHEMBL3400056, “Novel thiazolo[3,2-b]-1,2,4-triazoles derived from naproxen with analgesic/anti-inflammatory properties: Synthesis, biological evaluation and molecular modeling studies” (Bioorg Med Chem, 2015).

Each structure is given as a SMILES string.

For series [1], the system named is Mus musculus. Kind of series: Acute toxicity in Swiss albino mouse assessed as weight loss at 50 to 100 mg/kg, po measured up to 14 days. As to conditions: in vivo, 336 h. Details: dose 50-100 mg/kg, route oral. The series is classed as organism-based.
The test system of series [2] is Mus musculus. The series can be described thus: Antiinflammatory activity in Swiss albino mouse assessed as inhibition of carrageenan-induced paw edema at 50 mg/kg, po administered 1 hr prior to carrageenan challenge measured after 2 hrs relative to control. The class given is functional. Details: scale not given: the % may be the effect or the level left. A general note: The carrageenan paw model is a standard test of acute inflammation.

For series [3], the system named is Mus musculus. Kind of series: Acute toxicity in Swiss albino mouse assessed as behavioral changes at 50 to 100 mg/kg, po measured up to 14 days. The class given is organism-based. Also noted: dose 50-100 mg/kg, route oral. As to conditions: in vivo, 336 h.
In series [4] the test system is Mus musculus. The series can be described thus: Analgesic activity in Swiss albino mouse assessed as time of licking paws at 100 mg/kg, po measured after 2 hrs by tail flick test relative to control. The series is classed as functional. On the technique in general: Thermal pain tests record how soon the animal reacts.
Series [5] relates to Mus musculus. Kind of series: Gastrointestinal toxicity in Swiss albino mouse assessed as ulcer index at 100 mg/kg, po measured after 2 hrs. The series is classed as organism-based. Details: dose 100 mg/kg, route oral. As to conditions: in vivo.
The subject of series [6] is Mus musculus. The series can be described thus: Analgesic activity in Swiss albino mouse assessed as latancy of withdrawing tail at 100 mg/kg, po measured after 2 hrs by tail flick test relative to control. The class given is functional.
For series [7], the system named is Mus musculus. The series can be described thus: Analgesic activity in Swiss albino mouse assessed as latancy of withdrawing tail at 50 mg/kg, po measured after 2 hrs by tail flick test relative to control. The series is classed as functional.
Series [8] has as its system Mus musculus. The series can be described thus: Gastrointestinal toxicity in Swiss albino mouse assessed as ulcer index at 50 mg/kg, po measured after 2 hrs. The class given is organism-based. As to conditions: in vivo. Details: dose 50 mg/kg, route oral.
Series [9] concerns Mus musculus. Kind of series: Acute toxicity in Swiss albino mouse assessed as mortality at 50 to 100 mg/kg, po measured after 6 hrs to 14 days. The series is classed as organism-based. Also noted: dose 50-100 mg/kg, route oral. As to conditions: in vivo.
Series [10] has as its system Mus musculus. Kind of series: Antiinflammatory activity in Swiss albino mouse assessed as inhibition of carrageenan-induced paw edema at 100 mg/kg, po administered 1 hr prior to carrageenan challenge measured after 2 hrs relative to control. Details: scale not given: the % may be the effect or the level left. The class given is functional.
For series [11], the system named is Mus musculus. Kind of series: Analgesic activity in Swiss albino mouse assessed as time of licking paws at 50 mg/kg, po measured after 2 hrs by tail flick test relative to control. The class given is functional.

Take `COc1ccc2cc(C(C)c3nc4s/c(=C\c5cccc(OC(C)=O)c5)c(=O)n4n3)ccc2c1` (stereo unspecified): the Activity result is reported as “Non-toxic” in series [1]; 31.6% in [2]; “Non-toxic” in [3]; “Non-toxic” in series [9]; 29.1% in series [10]. The MPE in series [4] is given as 20.7%; in series [6] it was 20%; in series [7] it was 19.2%; in series [11], 17.5%. In addition, the UI in series [5] worked out at 2.4; in series [8], 2.9.
For the molecule `COc1ccc2cc(C(C)c3n[nH]c(=S)[nH]3)ccc2c1` (stereo unspecified), the Activity result is “Non-toxic” in series [1]; 30.1% in series [2]; “Non-toxic” in series [3]; “Non-toxic” in series [9]; 21.3% in series [10]. For the same molecule, the MPE in series [4] is reported as 8.2%; in series [6], 22.2%; in series [7], 16.8%; in [11], 18.7%. Further, the UI in [5] is 2.3; in series [8], 2.1.
In the case of `COc1ccc2cc(C(C)c3nc4s/c(=C\c5ccccc5OCc5ccccc5)c(=O)n4n3)ccc2c1` (stereo unspecified), the Activity result was “Non-toxic” in [1]; 43% in series [2]; “Non-toxic” in [3]; “Non-toxic” in [9]; 33.9% in series [10]. In addition, the MPE in series [4] worked out at 25.2%; in series [6], 18%; in [7], 18.9%; in series [11], 17.7%. The UI is 2.6 in series [5] and 2.4 in [8].
Consider `COc1ccc2cc(C(C)c3nc4s/c(=C\c5ccc(C)o5)c(=O)n4n3)ccc2c1` (stereo unspecified), for which the Activity result is on record as “Non-toxic” in series [1]; 41% in series [2]; “Non-toxic” in series [3]; “Non-toxic” in series [9]; 37% in series [10]. Moreover, the MPE in series [4] is 35.3%; in series [6], 48.6%; in series [7], 38.1%; in [11], 23.9%. Moreover, the UI in [5] amounted to 2.7; in [8] it was 1.3.
Consider `COc1ccc2cc(C(C)c3nc4s/c(=C\c5ccc6ccccc6c5)c(=O)n4n3)ccc2c1` (stereo unspecified), for which the Activity entry in series [1] is given as “Non-toxic”; in series [2], 37.9%; in series [3] it was “Non-toxic”; in [9], “Non-toxic”; in series [10] it was 44.9%. Also, the MPE in series [4] stood at 30.3%; in series [6] it was 32.2%; in [7] it was 30%; in [11], 17.7%. Moreover, the results for the UI in series [5] and in series [8] were 3.4 and 2, respectively.
Consider `COc1ccc2cc(C(C)c3nc4s/c(=C\C=C\c5ccccc5)c(=O)n4n3)ccc2c1` (stereo unspecified), for which the Activity result was “Non-toxic” in series [1]; 36.2% in [2]; “Non-toxic” in [3]; “Non-toxic” in series [9]; 37% in series [10]. Further, the MPE in [4] is 24.8%; in series [6], 30.9%; in series [7], 28.4%; in series [11], 15.8%. The UI in series [5] is given as 3.2; in series [8] it was 2.4.
As for `COc1ccc2cc(C(C)c3nc4s/c(=C\c5ccccc5OC(C)=O)c(=O)n4n3)ccc2c1` (stereo unspecified), the Activity entry is “Non-toxic” in [1]; 26.6% in [2]; “Non-toxic” in series [3]; “Non-toxic” in series [9]; 44.9% in series [10]. The MPE in series [4] came to 27%; in series [6], 13.3%; in series [7] it was 27.8%; in [11], 19.8%. For the same molecule, the figures for the UI in series [5] and in [8] were 3 and 2.9, respectively.
Consider `COc1ccc2cc(C(C)c3nc4s/c(=C\c5cccs5)c(=O)n4n3)ccc2c1` (stereo unspecified), for which the Activity entry in series [1] was “Non-toxic”; in series [2], 21.7%; in series [3], “Non-toxic”; in series [9], “Non-toxic”; in series [10] it was 21.2%. The MPE in [4] was determined as 21.3%; in [6], 24.9%; in series [7] it was 10.5%; in [11] it was 16.2%. Further, the UI in series [5] is 2.3; in series [8] it was 2.6.
In the case of `COc1ccc2cc(C(C)c3nc4s/c(=C\c5cn(C(C)=O)c6ccccc56)c(=O)n4n3)ccc2c1` (stereo unspecified), the Activity result in series [1] is recorded as “Non-toxic”; in [2] it was 37.7%; in [3] it was “Non-toxic”; in series [9] it was “Non-toxic”; in series [10], 43.3%. Further, the MPE in series [4] amounted to 18.7%; in series [6], 28.3%; in series [7] it was 30.8%; in series [11] it was 17.5%. Also, the UI in series [5] is listed as 2.4; in series [8], 2.7.
As for `COc1ccc2cc(C(C)c3nc4s/c(=C\c5cc(Br)cs5)c(=O)n4n3)ccc2c1` (stereo unspecified), the Activity entry in series [1] is recorded as “Non-toxic”; in [2], 43%; in series [3], “Non-toxic”; in series [9] it was “Non-toxic”; in series [10], 32.3%. Moreover, the MPE was found to be 21.2% in series [4], 19% in series [6], 28.7% in series [7] and 20.1% in series [11]. Further, the UI in series [5] and in series [8] was 2.9 in each case.
Take `COc1ccc2cc(C(C)c3nc4s/c(=C\c5ccco5)c(=O)n4n3)ccc2c1` (stereo unspecified): the Activity entry is “Non-toxic” in series [1]; 15.2% in series [2]; “Non-toxic” in [3]; “Non-toxic” in [9]; 26% in series [10]. The MPE turned out to be 22% in [4], 19.3% in series [6], 13.3% in series [7] and 19.7% in [11]. The UI is listed as 1.9 in series [5] and 2.6 in series [8].
For the molecule `COc1ccc2cc(C(C)c3nc4s/c(=C\c5sccc5C)c(=O)n4n3)ccc2c1` (stereo unspecified), the Activity entry in series [1] was “Non-toxic”; in series [2] it was 22.5%; in [3], “Non-toxic”; in series [9] it was “Non-toxic”; in series [10] it was 19.7%. The MPE in [4] stood at 18.3%; in series [6], 10.2%; in series [7] it was 15.2%; in [11], 13.5%. The UI in [5] was determined as 2.7; in [8] it was 2.6.
With `COc1ccc2cc(C(C)c3nc4s/c(=C\c5cccc(OCc6ccccc6)c5)c(=O)n4n3)ccc2c1` (stereo unspecified), the Activity entry in series [1] is recorded as “Non-toxic”; in [2] it was 37.9%; in [3], “Non-toxic”; in [9] it was “Non-toxic”; in series [10], 34.4%. Further, the MPE in series [4] is listed as 19.2%; in [6], 22.3%; in series [7], 24.8%; in series [11], 21.5%. Moreover, the UI in series [5] and in series [8] was 2.9 in each case.
Regarding `COc1ccc2cc([C@H](C)C(=O)O)ccc2c1` [NAPROXEN], the Activity in [2] was 49.2%; in [10] it was 53.3%. Moreover, the MPE in series [4] is 38.6%; in series [6], 49.4%; in series [7], 47.6%; in series [11], 39.3%. Also, the UI stood at 4.2 in series [5] and 3.6 in [8].
As to `COc1ccc2c3c1O[C@H]1C(=O)CC[C@@]4(O)[C@@H](C2)N(C)CC[C@]314` [OXYCODONE], the Activity amounted to 0.9% in series [2] and 3.9% in series [10]. The MPE in series [4] turned out to be 52.9%; in series [6], 66.9%; in [7] it was 63.3%; in [11], 52.9%. The UI in series [5] and in [8] was 1.5 each time.
With `COc1ccc2cc(C(C)c3nc4s/c(=C\c5ccc(OCc6ccccc6)cc5)c(=O)n4n3)ccc2c1` (stereo unspecified), the Activity entry in series [1] is listed as “Non-toxic”; in [2], 44.5%; in series [3], “Non-toxic”; in series [9], “Non-toxic”; in [10], 32.5%. The MPE in series [4] amounted to 14.5%; in series [6], 28.1%; in series [7], 24.4%; in series [11], 23.6%. For the same molecule, the values for the UI in series [5] and in series [8] were 2.7 and 3, respectively.
Take `COc1ccc2cc(C(C)c3nc4s/c(=C\c5ccc(OC(C)=O)cc5)c(=O)n4n3)ccc2c1` (stereo unspecified): the Activity result in series [1] is recorded as “Non-toxic”; in series [2], 36.2%; in series [3] it was “Non-toxic”; in series [9] it was “Non-toxic”; in [10], 33.6%. The MPE in series [4] is on record as 19.9%; in [6], 18.2%; in series [7], 23.3%; in series [11] it was 24.9%. Further, the UI in [5] came to 2.7; in series [8] it was 2.9.
